Here are results for 2 compounds from article PMC11035696, “Prospective de novo drug design with deep interactome learning” (Nature Communications, 2024).

“Also recorded” adds a separate entry of the source.

A short description of series [1]: Protein binding, unbound free fraction. In kind it is in vitro ADME. The following applies: human, plasma. Here is the method: (§1) Compounds 1–3 were characterized in a hybrid reporter gene assay for their agoniztic effect on human nuclear receptors PPARα/γ/δ, RXRα, FXRα, RARα in HEK293T cells. Compound 1 was tested in an isothermal titration calorimetry (ITC) assay to measure direct binding affinity to the ligand-binding domain of PPARγ. ADME properties were measured in standardized assays at Roche.
(§2) SI11Absorption Distribution Metabolism and Excretion and Toxicity Data
(§3) To assess the drug-like characteristics of the newly designed PPAR modulators, a series of tests were conducted covering various aspects of absorption, distribution, metabolism, and excretion (ADME) properties. Specifically, these assessments included the parallel artificial membrane permeability assay (PAMPA) with permeation co- […]
efficients ([…]), LogD measurements, microsomal clearance, hepatocyte clearance, P-glycoprotein (Pgp) efflux ratio and binding and the unbound free fraction. […]
Table S14: Absorption distribution metabolism and excretion (ADME) properties of compounds 1 and 2. The […]
values for […], LogD, protein binding, P-glycoprotein (Pgp) efflux ratio and permeability, and hepato-cyte clearance are presented as the mean and standard deviation, with a sample size of N = 3, i.e., 3 technical replicates each. The values for microsomal clearance and CYP-inhibition represent single point measurements. […]

The target in series [2] is T1, human PPARγ (Homo sapiens, UniProt P37231).
T1 construct: expressed in transfected cells; host or cells: HEK293T
T1 sequence (P37231 238-503 limits assumed): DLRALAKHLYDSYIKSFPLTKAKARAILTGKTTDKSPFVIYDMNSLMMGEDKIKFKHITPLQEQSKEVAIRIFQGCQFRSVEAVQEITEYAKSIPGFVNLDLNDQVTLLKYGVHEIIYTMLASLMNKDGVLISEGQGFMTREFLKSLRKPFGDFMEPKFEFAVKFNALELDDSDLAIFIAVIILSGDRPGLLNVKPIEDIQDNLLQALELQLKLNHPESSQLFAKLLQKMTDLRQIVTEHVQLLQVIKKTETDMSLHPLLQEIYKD
In words: Gal4-hybrid reporter gene assay, PPARγ activation. In kind it is cell-based. As to conditions: PPARγ, compounds 1 and 2, Table 4; read-out: pEC50 (converted). The protocol:
as §1
PPAR activation was determined in uniform Gal4-hybrid reporter gene assays for the PPARα, PPARγ and PPARδ isoforms in HEK293T cells (German Collection of Microorganisms and Cell Culture GmbH, DSMZ) which were transiently transfected with pFR-Luc (Stratagene, La Jolla, CA, USA; reporter) and pRL-SV40 (Promega, Madison, WI, USA; internal control) and one pFA-CMV-hPPAR-LBD[97] clone, coding for the hinge region and ligand binding domain of the canonical isoform of human PPARα, PPARγ, PPARδ or respectively. Cells were cultured in Dulbecco’s modified Eagle’s medium (DMEM), high glucose supplemented with 10% fetal calf serum (FCS), sodium pyruvate (1 mM), penicillin (100 U ⋅ ml^-1), and streptomycin (100 μg ⋅ ml^-1) at 37 °C and 5% CO2 and seeded in 96-well plates (3 × 10^4 cells per well). After 24 h, medium was changed to Opti-MEM without supplements and cells were transiently transfected using Lipofectamine LTX reagent (Invitrogen) according to the manufacturer’s protocol. Five hours after transfection, cells were incubated with the test compounds in Opti-MEM supplemented with penicillin (100 U ⋅ ml^-1), streptomycin (100 μg ⋅ ml^-1) and 0.1% DMSO for 16 h before luciferase activity was measured using the Dual-Glo Luciferase Assay System (Promega) according to the manufacturer’s protocol on a Tecan Spark luminometer (Tecan Deutschland GmbH, Germany). Firefly luminescence was divided by Renilla luminescence and multiplied by 1000 resulting in relative light units (RLU) to normalize for transfection efficiency and cell growth. Fold activation was obtained by dividing the mean RLU of a test compound by the mean RLU of the untreated control. All samples were tested in at least three biologically independent experiments in duplicates. For dose-response curve fitting and calculation of EC50 values, the equation “[Agonist] versus response (variable slope—four parameters)” was used in GraphPad Prism (version 7.00, GraphPad Software, La Jolla, CA, USA) with fold activation data. The reference agonizts GW7647 (PPARα)[98],[99], pioglitazone (PPARγ)[100],[101] and L165,041 (PPARδ)[102],[103] were used to validate the assays and to monitor assay performance. Nuclear receptor selectivity profiling was performed with corresponding pFA-CMV-hNR-LBD clones and suitable reference agonizts on RARα (pFA-CMV-hRARα-LBD[104], 1 μM tretinoin), LXRα (pFA-CMV-hLXRα-LBD[104], 1 μM TO901317) and RXRα (pFA-CMV-h RXRα-LBD[105], 1 μM Bexarotene).
In general terms: In a reporter assay the amount or activity of a reporter protein is the signal.

Series [3] deals with CYP2C19 (Homo sapiens, UniProt P33261). The series can be described thus: CYP inhibition dose-response. The following applies: substrate S-MEPHENYTOIN
Sequence of CYP2C19 (P33261 whole entry): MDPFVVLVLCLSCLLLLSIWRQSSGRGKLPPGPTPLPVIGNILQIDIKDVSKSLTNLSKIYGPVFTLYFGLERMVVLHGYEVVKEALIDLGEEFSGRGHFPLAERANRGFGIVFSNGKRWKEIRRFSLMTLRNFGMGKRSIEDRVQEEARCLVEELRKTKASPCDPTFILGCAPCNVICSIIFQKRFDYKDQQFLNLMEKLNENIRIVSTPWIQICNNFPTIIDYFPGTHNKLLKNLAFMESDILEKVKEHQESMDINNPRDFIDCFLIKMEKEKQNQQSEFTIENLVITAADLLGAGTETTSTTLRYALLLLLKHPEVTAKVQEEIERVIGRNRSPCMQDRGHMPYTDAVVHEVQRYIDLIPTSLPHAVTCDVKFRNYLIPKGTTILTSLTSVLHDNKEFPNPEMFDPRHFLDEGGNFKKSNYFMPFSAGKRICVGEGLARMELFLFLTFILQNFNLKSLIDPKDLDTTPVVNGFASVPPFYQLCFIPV
In kind it is in vitro ADME. Here is the method:
as §2, §3
efficients ([…]), LogD measurements, microsomal clearance, hepatocyte clearance, P-glycoprotein (Pgp) efflux ratio and binding and the unbound free fraction. Furthermore, the evaluation of inhibition po-tential against cytochrome P450 isoenzymes (CYP) proteins was investigated. For seven selected CYP proteins (i.e., Cyp3A4, Cyp1A2, Cyp2B6, Cyp2C9, Cyp2D6, Cyp2C19, and Cyp2C8) the half maximal inhibitory con-centration (IC50) was determined. (Table S15). […]
activity in the CYP assays was found.
Table S14: Absorption distribution metabolism and excretion (ADME) properties of compounds 1 and 2. […]
The values for microsomal clearance and CYP-inhibition represent single point measurements. […]
Molecule Enzyme Substrate IC50 (µM) […]

Series [4] has as its system HEK293T cells. The series can be described thus: Cytotoxicity assay on HEK293T cells (Celltiter-glo). The following applies: 16 h and 24 h, 0.05–20 μM, range of cell numbers, result in words. In kind it is cell-based, human. Here is the method: HEK293T cells were seeded at the indicated number per well in DMEM-high glucose, complemented with glutamax, pen-strep, and 10% FBS, in a total of 40 μl of medium. The cells were incubated overnight at 37 °C. Compounds were added to the cells at the indicated concentrations, resulting in a final Dimethylsulfoxid (DMSO) concentration of 0.2%. The compounds were incubated on the cells for either 16 h or 24 h. At the specified time point, the medium was carefully removed from the vessel, leaving only 2 μl in the wells. Celltiter-glo (CTG) reagent (G7572, Promega) was prepared according to the manufacturer’s instructions. Plates with cells were equilibrated at room temperature for 30 min. Subsequently, 25 μl of CTG reagent was added to the cells. The plates were then shaken for 2 min and incubated for an additional 15 min at room temperature. Luminescence was read afterward with BG Pherastar.

The subject of series [5] is NICOTINIC RECEPTOR, NEURONAL (α-BGTX insens.). The series can be described thus: Safety off-target panel, binding. On the set-up: species or system Human. As to conditions: 10 µM, single point. The text has this:
Table S9-S12 list all targets, their species, inhibition (%) and assay type for the experiments conducted in the
off-targets. […] The numbers for mean
inhibition (%) represent single point measurements.
off-targets. […] The numbers for
mean inhibition (%) represent single point measurements.

What is called fraction unbound is the share of the substance not bound to proteins or other matrix. One may read the IC50 as the concentration that inhibits the measured activity by half. Read a low IC50 as inhibition by little substance. In series [1], `COc1ccc(Oc2ccc3ncn(CCOc4ccc(CCC(=O)O)cc4)c3c2)cc1` [Compound 2] had a fraction unbound of 0.0042. Moreover, in series [2], the EC50 is 2.29 µM. Moreover, the IC50 in series [3] was greater than 20 µM. The “cytotoxicity on HEK293T cells” value in series [4] is “did not indicate any cytotoxicity; also recorded: No cytotoxic effects”. In addition, the “Mean inhibition (%)” value in series [5] is recorded as -2.9%.
In series [1], `Cc1nnc(-c2ccc(OCCCOc3ccc(CCC(=O)O)c(F)c3)c(F)c2)s1` [Compound 1] displayed a free fraction (fraction unbound) of 0.0021. In series [2], the EC50 is 1.48 µM. The same compound registered an IC50 in series [3] greater than 20 µM. Also, the “cytotoxicity on HEK293T cells” value in series [4] is “did not indicate any cytotoxicity; also recorded: No cytotoxic effects”. Further, the “Mean inhibition (%)” value in series [5] is given as -6.9%.
